Reference: patent publication US10450301B2, “Apoptosis signal-regulating kinase 1 inhibitors and methods of use thereof” (ENANTA PHARMACEUTICALS, INC., priority 2017, dated 2019)

These compounds were tested against ASK1 (Homo sapiens (Human), UniProt Q99683) (assay: HTRF KinEASE Assay (TR-FRET, STK3 peptide substrate), inhibition of ASK1). Conditions: 5 nM ASK1 kinase, 1 μM STK3 peptide substrate, 100 μM ATP, 3 hours; compound 0 to 10 μM.
Assay type: biochemical
Protocol: Assay HTRF® KinEASE™ Assay
ASK1 was purchased from Thermofisher (Catalogue # PV4011), ATP was purchased from Sigma (Catalogue # A7699), HI-TRF® KinEASE™ Assay System was obtained from Cisbio (Bedford, Mass.). […] HTRF® KinEASE™-STK is a generic method for measuring serine/threonine kinase activities using a time-resolved fluorescence resonance energy transfer (TR-FRET) immunoassay. […] 100 Um ATP is added to start kinase reaction and incubated for 3 hours. The STK3-antibody labeled with Eu^3+-Cryptate and 125 Nm streptavidin-XL665 are mixed in a single addition with stop reagents provided by the Cisbio kit used to stop the kinase reaction. […] The resulting TR-FRET is proportional to the phosphorylation level. Staurosporine was used as the positive control. IC50 was determined by Xlfit 5.3.
By using above method, the inhibition of ASK1 was evaluated for the compounds of Formula (I).

Sequence of ASK1 (Q99683 whole entry): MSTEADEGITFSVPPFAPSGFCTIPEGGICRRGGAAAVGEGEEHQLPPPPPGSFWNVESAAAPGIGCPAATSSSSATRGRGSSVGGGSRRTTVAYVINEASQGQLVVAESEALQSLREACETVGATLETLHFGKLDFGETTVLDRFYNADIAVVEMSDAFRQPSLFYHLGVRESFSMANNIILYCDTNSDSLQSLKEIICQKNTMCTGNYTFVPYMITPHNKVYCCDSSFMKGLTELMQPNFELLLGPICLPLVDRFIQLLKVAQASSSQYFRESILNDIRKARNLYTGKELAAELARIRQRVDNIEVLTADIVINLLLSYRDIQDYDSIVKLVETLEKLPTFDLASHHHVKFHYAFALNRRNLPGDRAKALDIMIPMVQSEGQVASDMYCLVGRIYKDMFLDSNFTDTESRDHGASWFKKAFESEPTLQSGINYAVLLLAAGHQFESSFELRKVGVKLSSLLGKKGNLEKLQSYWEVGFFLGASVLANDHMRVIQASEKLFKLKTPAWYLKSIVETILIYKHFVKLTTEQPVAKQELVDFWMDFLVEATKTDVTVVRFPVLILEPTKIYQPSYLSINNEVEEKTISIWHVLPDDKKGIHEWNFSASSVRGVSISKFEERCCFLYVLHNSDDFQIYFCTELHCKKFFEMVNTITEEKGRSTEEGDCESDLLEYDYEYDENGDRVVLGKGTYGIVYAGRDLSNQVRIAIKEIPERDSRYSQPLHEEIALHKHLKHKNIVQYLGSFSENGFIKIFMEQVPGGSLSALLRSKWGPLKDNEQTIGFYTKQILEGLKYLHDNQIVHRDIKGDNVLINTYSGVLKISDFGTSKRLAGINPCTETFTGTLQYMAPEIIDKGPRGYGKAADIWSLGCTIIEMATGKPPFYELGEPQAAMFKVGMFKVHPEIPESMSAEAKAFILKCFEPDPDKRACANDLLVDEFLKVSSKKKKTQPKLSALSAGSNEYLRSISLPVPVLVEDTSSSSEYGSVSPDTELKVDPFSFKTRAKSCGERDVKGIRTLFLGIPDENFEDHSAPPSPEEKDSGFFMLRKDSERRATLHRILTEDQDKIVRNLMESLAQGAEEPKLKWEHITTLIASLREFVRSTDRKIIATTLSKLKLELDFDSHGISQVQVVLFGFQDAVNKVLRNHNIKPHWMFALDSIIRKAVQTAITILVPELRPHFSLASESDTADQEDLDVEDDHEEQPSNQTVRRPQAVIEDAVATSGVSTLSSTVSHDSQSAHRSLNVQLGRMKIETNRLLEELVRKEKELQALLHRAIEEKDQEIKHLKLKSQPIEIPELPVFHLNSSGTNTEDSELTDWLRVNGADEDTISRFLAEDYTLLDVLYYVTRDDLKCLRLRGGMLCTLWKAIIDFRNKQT

Row | Compound | IC50
1 | CC(C)n1nnnc1-c1cccc(NC(=O)c2cc3c(cc2F)CCN(c2ccccc2)C3)n1 [Example 54, 6-fluoro-N-(6-(1-isopropyl-1H-tetrazol-5-yl)pyridin-2-yl)-2-phenyl-1,2,3,4-tetrahydroisoquinoline-7-carboxamide] | 10 to 100 nM
2 | COCCS(=O)(=O)N1CCc2cc(F)c(C(=O)Nc3cccc(-c4nnnn4C(C)C)n3)cc2C1 [Example 55] | 10 to 100 nM
3 | CC(C)n1nnnc1-c1cccc(NC(=O)c2cc3c(cc2F)CCN(C(=O)NC2CCCC2)C3)n1 [Example 56] | 10 to 100 nM
4 | CC(C)n1nnnc1-c1cccc(NC(=O)c2cc3c(cc2F)CCN(C(=O)OC2CCCC2)C3)n1 [Example 57] | 10 to 100 nM
5 | CC(C)n1nnnc1-c1cccc(NC(=O)c2cc3c(cc2F)CCNC3)n1 [Example 58] | 100 to 1000 nM
6 | C=CCOC(=O)N1CCc2ccc(C(=O)Nc3cccc(-c4nncn4C(C)C)n3)cc2C1 [Example 59, allyl 7-((6-(4-isopropyl-4H-1,2,4-triazol-3-yl)pyridin-2-yl)carbamoyl)-3,4-dihydroisoquinoline-2(1H)-carboxylate] | 10 to 100 nM
7 | COCCC(=O)N1CCc2ccc(C(=O)Nc3cccc(-c4nncn4C(C)C)n3)cc2C1 [Example 60] | 10 to 100 nM
8 | CC(C)n1cnnc1-c1cccc(NC(=O)c2ccc3c(c2)CN(C(=O)NC2CCCC2)CC3)n1 [Example 61] | 10 to 100 nM
9 | CCCCNC(=O)N1CCc2ccc(C(=O)Nc3cccc(-c4nncn4C(C)C)n3)cc2C1 [Example 62] | 1 to 10 nM
10 | CCNC(=O)N1CCc2ccc(C(=O)Nc3cccc(-c4nncn4C(C)C)n3)cc2C1 [Example 63] | 1 to 10 nM
11 | C=CCCOC(=O)N1CCc2ccc(C(=O)Nc3cccc(-c4nncn4C(C)C)n3)cc2C1 [Example 64] | 10 to 100 nM
12 | CC(C)n1cnnc1-c1cccc(NC(=O)c2ccc3c(c2)CN(C(=O)OCCF)CC3)n1 [Example 65] | 10 to 100 nM
13 | CC(C)COC(=O)N1CCc2ccc(C(=O)Nc3cccc(-c4nncn4C(C)C)n3)cc2C1 [Example 66] | 10 to 100 nM
14 | CC(C)n1cnnc1-c1cccc(NC(=O)c2ccc3c(c2)CN(C(=O)OCc2ccccc2)CC3)n1 [Example 67, benzyl 7-((6-(4-isopropyl-4H-1,2,4-triazol-3-yl)pyridin-2-yl)carbamoyl)-3,4-dihydroisoquinoline-2(1H)-carboxylate] | 10 to 100 nM
15 | CC1NCCc2cc(F)c(C(=O)Nc3cccc(-c4nnnn4C(C)C)n3)cc21 (centres unmarked) [Example 68, 6-fluoro-N-(6-(1-isopropyl-1H-tetrazol-5-yl)pyridin-2-yl)-1-methyl-1,2,3,4-tetrahydroiso-quinoline-7-carboxamide] | 100 to 1000 nM
16 | CC1c2cc(C(=O)Nc3cccc(-c4nnnn4C(C)C)n3)c(F)cc2CCN1C(=O)N1CCCC1 (centres unmarked) [Example 69] | 10 to 100 nM
17 | CC1c2cc(C(=O)Nc3cccc(-c4nnnn4C(C)C)n3)c(F)cc2CCN1S(=O)(=O)CCC(F)(F)F (centres unmarked) [Example 70] | 10 to 100 nM
18 | CC(C)c1nnnn1-c1cccc(NC(=O)c2cc3c(cc2F)CCNC3)n1 [Example 71] | > 1000 nM
19 | CC(=O)OC[C@@H](C)n1nnnc1-c1cccc(NC(=O)c2cc3c(cc2F)CCN(C(=O)N(C)CC(F)(F)F)C3)n1 [Example 72] | > 1000 nM
20 | CC(=O)OC[C@@H](C)n1nnnc1-c1cccc(NC(=O)c2cc3c(cc2F)CCN(C(=O)N2CCCC2)C3)n1 [Example 73] | > 1000 nM
21 | CC1c2cc(C(=O)Nc3cccc(-c4nnnn4C(C)C)n3)c(F)cc2CCN1C(=O)OCc1ccccc1 (centres unmarked) [Example 74, benzyl 6-fluoro-7-((6-(1-isopropyl-1H-tetrazol-5-yl)pyridin-2-yl)carbamoyl)-1-methyl-3,4-dihydroisoquinoline-2(1H)-carboxylate] | 100 to 1000 nM
22 | C[C@H](CO)n1nnnc1-c1cccc(NC(=O)c2cc3c(cc2F)CCN(C(=O)N(C)CC(F)(F)F)C3)n1 [Example 75, (R)-6-fluoro-N7-(6-(1-(1-hydroxypropan-2-yl)-1H-tetrazol-5-yl)pyridin-2-yl)-N2-methyl-N2-(2,2,2-trifluoroethyl)-3,4-dihydroisoquinoline-2,7(1H)-dicarboxamide] | 10 to 100 nM

Row | Compound | IC50
23 | C[C@H](CO)n1nnnc1-c1cccc(NC(=O)c2cc3c(cc2F)CCN(C(=O)N2CCCC2)C3)n1 [Example 76] | 1 to 10 nM
24 | CC(C)n1nnnc1-c1cccc(NC(=O)c2cc3c(cc2F)CCN(C(=O)N(C)CC(F)(F)F)C3)n1 [Example 77] | 10 to 100 nM
25 | CC(C)n1nnnc1-c1cccc(NC(=O)c2cc3c(cc2F)CCN(C(=O)N(C)C2CCCC2)C3)n1 [Example 78] | 10 to 100 nM
26 | CC(C)CN(C)C(=O)N1CCc2cc(F)c(C(=O)Nc3cccc(-c4nnnn4C(C)C)n3)cc2C1 [Example 79] | 10 to 100 nM
27 | CC(C)N(C)C(=O)N1CCc2cc(F)c(C(=O)Nc3cccc(-c4nnnn4C(C)C)n3)cc2C1 [Example 80] | 10 to 100 nM
28 | CC(=O)OC[C@@H](C)n1nnnc1-c1cccc(NC(=O)c2cc3c(cc2F)CCNC3)n1 [Example 81] | > 1000 nM
29 | C[C@H](CO)n1nnnc1-c1cccc(NC(=O)c2cc3c(cc2F)CCN(S(=O)(=O)CCC(F)(F)F)C3)n1 [Example 82] | 1 to 10 nM
30 | CC(C)c1nnnn1-c1cccc(NC(=O)c2cc3c(cc2F)CCN(C(=O)OCc2ccccc2)C3)n1 [Example 83, benzyl 6-fluoro-7-((6-(5-isopropyl-1H-tetrazol-1-yl)pyridin-2-yl)carbamoyl)-3,4-dihydroisoquinoline-2(1H)-carboxylate] | > 1000 nM
31 | CC(=O)OC[C@@H](C)n1nnnc1-c1cccc(NC(=O)c2cc3c(cc2F)CCN(S(=O)(=O)CCC(F)(F)F)C3)n1 [Example 84] | > 1000 nM
32 | CC(C)n1nnnc1-c1cccc(NC(=O)c2cc3c(cc2F)CCN(S(=O)(=O)C2CCCC2)C3)n1 [Example 85] | 10 to 100 nM
33 | CC(C)CS(=O)(=O)N1CCc2cc(F)c(C(=O)Nc3cccc(-c4nnnn4C(C)C)n3)cc2C1 [Example 86] | 10 to 100 nM
34 | CC(C)n1nnnc1-c1cccc(NC(=O)c2cc3c(cc2F)CCN(S(=O)(=O)CC2CC2)C3)n1 [Example 87] | 10 to 100 nM
35 | CC(C)n1nnnc1-c1cccc(NC(=O)c2cc3c(cc2F)CCN(S(=O)(=O)C2CC2)C3)n1 [Example 88] | > 1000 nM
36 | CC(C)n1nnnc1-c1cccc(NC(=O)c2cc3c(cc2F)CCN(S(=O)(=O)N(C)C)C3)n1 [Example 89] | 10 to 100 nM
37 | CCN1CCN(C(=O)N2CCc3cc(F)c(C(=O)Nc4cccc(-c5nnnn5C(C)C)n4)cc3C2)C(=O)C1=O [Example 90] | 10 to 100 nM
38 | CC(C)n1nnnc1-c1cccc(NC(=O)c2cc3c(cc2F)CCN(C(=O)N2CCN(C)CC2)C3)n1 [Example 91] | 10 to 100 nM
39 | CC(C)n1nnnc1-c1cccc(NC(=O)c2cc3c(cc2F)CCN(C(=O)N2CCOCC2)C3)n1 [Example 92] | 10 to 100 nM
40 | CC(C)n1nnnc1-c1cccc(NC(=O)c2cc3c(cc2F)CCN(C(=O)N2CCCC2)C3)n1 [Example 93] | 10 to 100 nM
41 | CCN(CC)C(=O)N1CCc2cc(F)c(C(=O)Nc3cccc(-c4nnnn4C(C)C)n3)cc2C1 [Example 94] | 1 to 10 nM
42 | CCN(C)C(=O)N1CCc2cc(F)c(C(=O)Nc3cccc(-c4nnnn4C(C)C)n3)cc2C1 [Example 95] | 10 to 100 nM
43 | CC(C)n1nnnc1-c1cccc(NC(=O)c2cc3c(cc2F)CCN(C(=O)N(C)C)C3)n1 [Example 96] | 10 to 100 nM
44 | CC(C)n1nnnc1-c1cccc(NC(=O)c2cc3c(cc2F)CCN(C(=O)C2CCCC2)C3)n1 [Example 97] | 10 to 100 nM
